Results from US9738610B2, “Indazole derivatives and uses thereof” (Whitehead Institute for Biomedical Research, priority 2012, dated 2017).
≈ marks a conversion by molar mass, not a printed value.

How the values were obtained:
[1] = test system: fluconazole-resistant C. albicans strain Gu5; conditions: cited from earlier work
[2] = test system: fluconazole-susceptible C. albicans strain 90028; conditions: cited from earlier work
[3] = test system: NIH-3T3 mammalian fibroblasts; assay: Counterscreen mammalian cell toxicity assay (fibroblast toxicity); type: cell-based, murine; conditions: Mus musculus, NIH3T3; footnote: in the absence of fluconazole; read-out: Anti-target Potency (μM) Mean ± S.E.M Fibroblasts^b IC50
Plasma stability = conditions: % remaining in human plasma after a 5-hour incubation
C. albicans CaCi-2 [4] = assay: Secondary single-agent (no-fluconazole) activity assay; type: cell-based, Candida albicans; conditions: Candida albicans, CACI2; in the absence of fluconazole; read-out: Target Potency (μM) Mean ± S.E.M CaCi-2^b IC50
Outline: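 C. albicans CaCi-2 in RPMI synthetic defined medium with 1% Pen/Strep, starting OD600 0.00015, exposed to compound alone (no fluconazole) for 48 h at 37 °C without agitation. Growth read as Alamar Blue fluorescence (1:200 final) after 2 h at room temperature.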

C. albicans CaCi-8 = assay: microbe, parasite or virus in culture; type: cell-based, Candida albicans; conditions: read-out: Target Potency (μM) Mean ± S.E.M CaCi-8^a IC50; in the presence of fluconazole
Outline: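 Hits tested for chemosensitization of the fluconazole-resistant CaCi-8 strain, for inherent antifungal activity without fluconazole, and for mammalian fibroblast toxicity by fluorescence reporter. Geldanamycin plus fluconazole served as positive control; a Saccharomyces assay assigned mechanism to Hsp90, calcineurin or other pathways.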

Plasma protein binding = conditions: human, plasma
PBS solubility = conditions: PBS, aqueous buffer
Aspergillus terreus = Aspergillus terreus susceptibility test (CLSI M38-A2); type: cell-based
Experimental: Aspergillus terreus (A. terreus) susceptibility testing was performed as described in Clinical Laboratory Standards Institute document […]-A2 (CLSI […]-A2) (CLSI. Reference Method for Broth Dilution Antifungal Susceptibility Testing of Filamentous Fungi; Approved Standard-Second Edition. CLSI, 940 West Valley Road, Suite 1400, Wayne, Pa. 19087-1898 USA, 2003).

[5] = test system: Saccharomyces cerevisiae strain W303-1a; assay: In vivo inhibition of fungal respiration (growth on glycerol); type: cell-based; conditions: glycerol medium, 48 hours
Experimental: Saccharomyces cerevisiae (S. cerevisiae) strain W303-1a was grown overnight in Yeast-Peptone-Dextrose media, washed, and diluted into Yeast Nitrogen Base media with 2.5% glycerol containing compounds at a range of dilutions.

[6] = IC50 values and selectivity of Table 10A (target yeast, anti-target human cytochrome); type: biochemical
Experimental: (§1) All measurements were performed in triplicate.

yeast = target: T1, yeast (Saccharomyces cerevisiae, UniProt P00163); assay: as above; type: biochemical; conditions: for Selectivity* (anti-target IC50)/(target IC50): target yeast, anti-target human cytochrome
T1 construct: Mitochondrial membranes were prepared from yeast; endogenous in cells; host or cells: yeast (mitochondrial membranes)
Experimental: as §1

[7] = test system: Candida albicans strain CaCi-2; assay: Cytotoxicity to fluconazole-resistant strain CaCi-2; type: cell-based
[8] = test system: Candida albicans wild-type; assay: De novo emergence of fluconazole resistance (colonies after six days); type: cell-based; conditions: I-97 0.5 μM combined with fluconazole 32 mg/L
Experimental: Candida albicans wild-type (WT, FIG. 13, top panel) or rip1/rip1 homozygous deletion mutant (rip1 Δ/Δ, FIG. 13, middle panel) were plated on media in the presence of fluconazole (32 mg/L) or in the absence of fluconazole. The emergence of colonies was monitored after six days.

[9] = test system: Candida albicans strain SC5314; assay: Cytotoxicity to fluconazole-sensitive strain SC5314; type: cell-based
fungus = conditions: cited from earlier work
CaCi-2 = assay: MIC of fluconazole against CaCi-2; type: cell-based; conditions: Candida albicans; read-out: Minimum inhibitory concentration (MIC) against CaCi-2
Experimental: (§2) In order to identify non-fungitoxic chemosensitizers (“probes” or “probe compounds”) of C. albicans, compounds from the NIH's Molecular Libraries Small Molecule Repository (MLSMR) (mli.nih.gov/mli/secondary-menu/mlscn/ml-small-molecule-repository/) were evaluated in the screening cascade summarized in FIG. 3. The C. albicans strains used in the primary screen and secondary assay 1 (CaCi-2 and CaCi-8, respectively) are both clinical isolates that partially respond to fluconazole treatment (Redding et al., Clin. Infect. Dis. 1994, 18, 240-242). […] In the primary assay, CaCi-2 cells are exposed to 8 μg/mL fluconazole; this induces a basal level of 60-80% growth inhibition with additional suppression of the trailing growth associated with this particular strain (Redding et al., Clin. Infect. Dis. 1994, 18, 240-242).

C. albicans CaCi-2 [10] = assay: CaCi-2 growth inhibition in the presence of 8 μg/ml fluconazole (Alamar Blue); type: cell-based, Candida albicans; conditions: Candida albicans, CACI2; 8 μg/mL fluconazole alone in the primary assay; read-out: Basal level of growth inhibition of CaCi-2
CaCi-8 = assay: MIC of fluconazole against CaCi-8; type: cell-based; conditions: Candida albicans; read-out: Minimum inhibitory concentration (MIC) against CaCi-8
Experimental: as §2

SMILES: Clc1ccc2c(c1)nnc1nnnn12 [CTBT, 7-chlorotetrazolo[5,1-c]benzo[1,2,4]triazine]
- Concentrations inhibiting growth in the absence of fluconazole [1]: greater than 2.4 μM
- MIC when combined with fluconazole [1]: 2.4 µM
- Activity in the absence of fluconazole [2]: no activity
- MIC when combined with fluconazole [2]: 2.4 µM

SMILES: O=C(Cn1nc(C(=O)N2CCCCC2)c2ccccc21)N1CCOCC1 [Compound 46378661]
- IC50 [3]: > 6 µM
- Plasma Stability (Plasma stability): > 99%
- IC50 (C. albicans CaCi-2 [4]): > 26 µM
- IC50 (C. albicans CaCi-8): > 26 µM
- fraction unbound (Plasma protein binding): 0.48
- solubility (PBS solubility): 529 µM (≈ 189 µg/mL)

SMILES: Cc1nn(S(C)(=O)=O)c2ccccc12 [Compound 46856251]
- IC50 [3]: > 6 µM
- Plasma Stability (Plasma stability): > 99%
- IC50 (C. albicans CaCi-2 [4]): > 26 µM
- IC50 (C. albicans CaCi-8): > 26 µM
- fraction unbound (Plasma protein binding): 0.37
- solubility (PBS solubility): 494 µM (≈ 104 µg/mL)

SMILES: CCOC(=O)c1c2ccccc2nn1Cc1ccc(Cl)cc1 [Compound 46856252]
- IC50 [3]: > 6 µM
- Plasma Stability (Plasma stability): 70%
- IC50 (C. albicans CaCi-2 [4]): > 26 µM
- IC50 (C. albicans CaCi-8): > 26 µM
- fraction unbound (Plasma protein binding): < 0.01
- solubility (PBS solubility): < 1 µM

SMILES: FC(F)(F)c1ccc(-c2n[nH]c3ccccc23)cc1 [Compound 49635869]
- IC50 [3]: > 6 µM
- Plasma Stability (Plasma stability): 79%
- IC50 (C. albicans CaCi-2 [4]): > 26 µM
- IC50 (C. albicans CaCi-8): > 26 µM
- fraction unbound (Plasma protein binding): < 0.01
- solubility (PBS solubility): < 1 µM

SMILES: COC(=O)Cn1nc(-c2ccccc2)c2cccc(C(F)(F)F)c21 [Compound 49835842]
- IC50 [3]: > 6 µM
- Plasma Stability (Plasma stability): 50%
- IC50 (C. albicans CaCi-2 [4]): > 26 µM
- IC50 (C. albicans CaCi-8): > 26 µM
- fraction unbound (Plasma protein binding): < 0.01
- solubility (PBS solubility): < 1 µM

SMILES: COC(=O)Cn1nc(-c2cccc(OCc3ccccc3)c2)c2ccccc21 [Compound I-7]
- Inhibitory activity against A. terreus (Aspergillus terreus): shows inhibitory activity
- Inhibitory activity against S. cerevisiae (respiratory growth) [5]: shows inhibitory activity

SMILES: c1ccc(-c2nn(Cc3nnco3)c3ccccc23)cc1 [Compound I-74]
- IC50 [6]: 3000 nM
- Selectivity* (anti-target IC50)/(target IC50) (yeast): 53

SMILES: CNC(=O)Cn1nc(-c2ccccc2)c2ccccc21 [Compound I-75]
- IC50 [6]: > 80000 nM

SMILES: COC(=O)Cn1nc(-c2ccsc2)c2ccccc21 [Compound I-77]
- IC50 [6]: 625 nM
- Selectivity* (anti-target IC50)/(target IC50) (yeast): 48

SMILES: COC(=O)Cn1nc(-c2cccc(OCCCC3CCCCC3)c2)c2ccccc21 [Compound I-78]
- IC50 [6]: 10 nM
- Selectivity* (anti-target IC50)/(target IC50) (yeast): 100

SMILES: COC(=O)Cn1nc(-c2cccc(OCCC(C)(C)C)c2)c2ccccc21 [Compound I-79]
- IC50 [6]: 40 nM
- Selectivity* (anti-target IC50)/(target IC50) (yeast): 50

SMILES: COC(=O)Cn1nc(-c2ccccc2)c2cccc(C)c21 [Compound I-82]
- IC50 [6]: 125 nM
- Selectivity* (anti-target IC50)/(target IC50) (yeast): 40

SMILES: c1ccc(-c2nn(Cc3nn[nH]n3)c3ccccc23)cc1 [Compound I-87]
- IC50 [6]: > 160000 nM

SMILES: Cc1cc(Cn2nc(-c3ccccc3)c3ccccc32)on1 [Compound I-92]
- IC50 [6]: 30000 nM
- Selectivity* (anti-target IC50)/(target IC50) (yeast): >5

SMILES: COC(=O)Cn1nc(-c2ccccc2)c2ccccc21 [Compound I-96]
- IC50 [6]: 600 nM

SMILES: COC(=O)Cn1nc(-c2cc(C(F)(F)F)ccc2F)c2cccc(C)c21 [Compound I-97]
- Effect on CaCi-2 ([7]; combination with fluconazole): cytotoxic
- IC50 (yeast; target is yeast): 4 nM
- Selectivity* (anti-target IC50)/(target IC50) (yeast): 200
- Emergence of resistance to fluconazole [8]: prevented the emergence of the resistance to fluconazole
- Effect on SC5314 ([9]; combination with fluconazole): cytotoxic

SMILES: Cc1cccc2c(-c3cc(C(F)(F)F)ccc3F)nn(Cc3nnn(C)n3)c12 [Compound I-99]
- IC50 [6]: 23 nM
- Selectivity* (anti-target IC50)/(target IC50) (yeast): 160

SMILES: Cn1nnc(Cn2nc(-c3cc(OCCCC4CCCCC4)ccc3F)c3ccccc32)n1 [Compound I-102]
- IC50 [6]: 46 nM
- Selectivity* (anti-target IC50)/(target IC50) (yeast): 16

SMILES: O=C(O)Cn1nc(-c2ccccc2)c2ccccc21 [Compound I-107]
- IC50 [6]: > 120000 nM

SMILES: Brc1cccnc1Cn1nc(-c2ccccc2)c2ccccc21 [Compound I-113]
- IC50 [6]: > 120000 nM

SMILES: c1ccc(-c2nn(Cc3cnccn3)c3ccccc23)cc1 [Compound I-115]
- IC50 [6]: 630 nM
- Selectivity* (anti-target IC50)/(target IC50) (yeast): 128

SMILES: COC(=O)Cn1nc(-c2cccc(C#N)c2)c2ccccc21 [Compound I-118]
- IC50 [6]: 1250 nM
- Selectivity* (anti-target IC50)/(target IC50) (yeast): 96

SMILES: COC(=O)Cn1nc(-c2cccc([N+](=O)[O-])c2)c2ccccc21 [Compound I-119]
- IC50 [6]: 500 nM
- Selectivity* (anti-target IC50)/(target IC50) (yeast): 160

SMILES: COC(=O)Cn1nc(-c2ccccn2)c2ccccc21 [Compound I-120]
- IC50 [6]: 15000 nM

SMILES: COC(=O)Cn1nc(-c2cccc(OCc3ccccc3)c2F)c2ccccc21 [Compound I-134]
- IC50 [6]: 200 nM
- Selectivity* (anti-target IC50)/(target IC50) (yeast): 20

SMILES: COC(=O)Cn1nc(-c2cc(OCc3ccccc3)ccc2F)c2ccccc21 [Compound I-136]
- IC50 [6]: 60 nM
- Selectivity* (anti-target IC50)/(target IC50) (yeast): 8.3

SMILES: COC(=O)Cn1nc(-c2cccc(OCc3ccccc3)c2)c2ccccc21 [Compound I-140]
- IC50 [6]: 400 nM
- Selectivity* (anti-target IC50)/(target IC50) (yeast): 8

SMILES: CCCCc1oc2ccccc2c1C(=O)c1cc(I)c(OCCN(CC)CC)c(I)c1 [amiodarone]
- MIC50, single-agent antifungal activity (fungus): 3.1 µM (≈ 2 µg/mL)

SMILES: OC(Cn1cncn1)(Cn1cncn1)c1ccc(F)cc1F [fluconazole, reference compound]
- Effect on CaCi-2 ([7]; fluconazole alone): not cytostatic or cytotoxic
- MIC (CaCi-2): 2 µg/mL
- inhibition at 8 µg/mL (C. albicans CaCi-2 [10]): 60 to 80%
- Effect on SC5314 ([9]; fluconazole alone): cytostatic, but not cytotoxic
- MIC (CaCi-8): 8 µg/mL
